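Method: 48-hour compound exposure of cells in 96-well plates, five concentrations, linear interpolation of endpoints. TGI denotes the concentration required for complete inhibition of growth.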
Experiments:
Assay in all cases: NCI tumour cell line growth inhibition, 48 h
UACC-62 melanoma = tested on: UACC-62 melanoma
M14 melanoma = tested on: M14 melanoma
SR leukemia = tested on: SR leukemia
UACC-257 melanoma = tested on: UACC-257 melanoma
HCT-15 colon = tested on: HCT-15 colon
COLO 205 colon = tested on: COLO 205 colon
SNB-19 CNS = tested on: SNB-19 CNS
MALME-3M melanoma = tested on: MALME-3M melanoma
U251 CNS = tested on: U251 CNS
CCRF-CEM leukemia = tested on: CCRF-CEM leukemia
SF-539 CNS = tested on: SF-539 CNS
NCI-H460 lung = tested on: NCI-H460 lung
TK-10 renal = tested on: TK-10 renal
HOP-92 NSCLC = tested on: HOP-92 NSCLC
SK-MEL-28 melanoma = tested on: SK-MEL-28 melanoma

Row | SMILES | TGI (UACC-62 melanoma) [µM] | TGI (M14 melanoma) [µM] | TGI (SR leukemia) [µM] | TGI (UACC-257 melanoma) [µM] | TGI (HCT-15 colon) [µM] | TGI (COLO 205 colon) [µM] | TGI (SNB-19 CNS) [µM] | TGI (MALME-3M melanoma) [µM] | TGI (U251 CNS) [µM] | TGI (CCRF-CEM leukemia) [µM] | TGI (SF-539 CNS) [µM] | TGI (NCI-H460 lung) [µM] | TGI (TK-10 renal) [µM] | TGI (HOP-92 NSCLC) [µM] | TGI (SK-MEL-28 melanoma) [µM]
1 | CC1(C)C2CC1C(/C=N\OCC(=O)O)=CC2=O (stereo not given) | > 100 | > 100 | > 100 | > 100 | > 100 | > 100 | > 100 | > 100 | > 100 | > 100 | > 100 | > 100 | > 100 | > 100 | > 100
2 | COc1cccc2c1C(=O)c1c(O)c3c(c(O)c1C2=O)CC(O)(C(C)=O)CC3OC1CC([N+](C)(C)C)C(O)C(C)O1 (stereo not given) | > 100 | > 100 | > 100 | > 100 | > 100 | > 100 | > 100 | > 100 | > 100 | > 100 | > 100 | > 100 | > 100 | > 100 | > 100
3 | Cc1cc2c(c(C=Nc3ccc(N(C)C)cc3)c1)OC1(C=C2)Oc2ccccc2C(=O)N1C (stereo not given) | 26.7 | 30 | > 100 | 28.1 | 27.6 | 33.9 | 24.5 | 33.4 | 28.7 | 17.5 | 28.2 | 36.5 | 30.7 | 44.8 | 29.7
4 | O=c1ccc(-c2ccc(-n3ccnc3)cc2)nn1CCO | > 100 | > 100 | > 100 | > 100 | > 100 | > 100 | > 100 | > 100 | > 100 | > 100 | > 100 | > 100 | > 100 | > 100 | > 100
5 | O=c1oc2ccccc2cc1-c1nc2ccccc2c(=O)[nH]1 | > 100 | > 100 | > 100 | > 100 | > 100 | > 100 | > 100 | > 100 | > 100 | > 100 | > 100 | > 100 | > 100 | > 100 | > 100
6 | COC(=O)/C=C/COCC1C2CCC(=O)C21 (stereo not given) | > 100 | > 100 | > 100 | > 100 | > 100 | > 100 | > 100 | > 100 | > 100 | > 100 | > 100 | > 100 | > 100 | > 100 | > 100
7 | O=C(/C=C/c1ccsc1)c1cccs1 | 88.5 | 54.4 | > 10 | > 100 | 37 | 94.2 | > 100 | > 100 | 44.2 | 54.6 | > 100 | > 100 | > 100 | 93.5 | 46.1
8 | Cc1nc(C)c(N2CCN(C(=O)NC(CCC(=O)O)C(=O)O)CC2)c(=O)[nH]1 (stereo not given) | > 100 | > 100 | > 100 | > 100 | > 100 | > 100 | > 100 | > 100 | > 100 | > 100 | > 100 | > 100 | > 100 | > 100 | > 100

— PubChem BioAssay (NCI)
